Data published in US9079977B2, “Anti-trypanosomal peptides and uses thereof” (priority 2009, dated 2015).
Where a SMILES comes first, the peptide text is derived from it.

Tests used:
[1] = Method: Liposome permeabilization assays. Liposomes were constructed by hydration of dried lipid films with 10 mM Hepes and 30 mM calcein to a final lipid concentration of 10 mg/ml. Resulting multilamellar liposomes were extruded through a 0.1 μm polycarbonate filter at temperatures above the transition point of the particular lipid mixture. Untapped calcein was removed by gel filtration (Sephacryl S-300 HR). Permeabilization of liposomes was monitored fluorimetrically with a Perkin Elmer LS-55 luminescent spectrophotometer. Assays were performed by diluting liposomes 1:1000 into the appropriate buffer and monitoring fluorescence when excited by 484 nm light (5 nm slit width) and reading the emission intensity at 513 nm (10 nm slit widths). The percentage calcein release was calculated relative to the 100% fluorescence intensity, achieved by the addition of 0.01% Triton X-100.
[2] = tested on: Human embryonic kidney cells (HEK)
[3] = tested on: Bloodstream form T. b. brucei Lister 427; assay: Trypanosome killing assay, Example 2; assay type: cell-based, Trypanosoma brucei brucei; details: two hours at 37° C.
Method: Trypanosome killing assays. Bloodstream form T. b. brucei Lister 427 (MiTat 1.2), T. b. gambiense type 1 (Eliane strain) and T. b. rhodesiense KETR12482 were used in these studies. Trypanosome killing assays were performed as described previously (Hajduk et al., 1989, J Biol Chem; 264(9):5210-5217; Shiflett et al., 2005, J Biol Chem; 280(38):32578-32585; and Widener et al., 2007, PLoS Pathog; 3(9):1250-1261). Cultured trypanosomes (except for T. b. gambiense which were incubated at 1×10^6 cells/ml) were incubated in HMI-9 media (BSF) or SM media (PCF) at a density of 1×10^7 cells/ml containing either 10% heat inactivated fetal bovine serum or bovine serum albumin and peptide or control reagents for two hours at 37° C. Killing of BSF trypanosomes was evaluated by phase-contrast microscopy. Procyclic form trypanosomes were stained with 0.1% trypan blue. Trypan blue staining was also used for some BSF assays to eliminate any possible discrepancy between the PCF and BSF assays. Trypan blue was added at the endpoint of each assay to avoid any toxic effects.

[4] = tested on: bloodstream form T. b. brucei (wild type 427); assay: Trypanosome lysis assay with Hpr-SP; assay type: cell-based, Trypanosoma brucei brucei; details: 8-80 μM peptide, 2 h, 37° C.
Method: Trypanosome lysis assays. Trypanosomes were cultured in the appropriate media and incubated at a cell density of 3×10^6 cells/ml with the addition of peptide from a 10 mg/ml stock in DMSO, or control reagents for 2 hours (h) at 37° C. Lysis of bloodstream form trypanosomes was evaluated by phase-contrast microscopy. Procyclic form trypanosomes were stained with 0.1% trypan blue. Trypan blue staining was also used for some bloodstream form assays to eliminate any possible discrepancy between the procyclic and bloodstream form assays.

BSF T. b. brucei [5] = assay: Trypanosome killing assay, Example 4; assay type: cell-based, Trypanosoma brucei brucei; details: two hour killing assay, 37° C.
Method: Trypanosome Killing Assays. Light microscopy based trypanosome killing assays were performed as previously described in detail (Harrington et al., 2010, J Biol Chem; 285(37):28659-66; Widener et al., 2007, PLoS Pathog; 3(9):1250-61; Shiflett et al., 2007, J Eukaryot Microbiol; 54(1):18-21; and Hajduk et al., 1989, J Biol Chem; 264(9):5210-7). Metacyclic T. b. brucei TREU 667 were obtained from dissection of the salivary glands of infected tsetse flies. Newly hatched Glossina morsitans morsitans (24-48 hours post eclosion) were fed defibrinated horse blood containing 2×10^6 ml^−1 trypanosomes and maintained at 25° C. in 75% relative humidity and fed maintenance blood meals three times per week. Following day 20-30, flies were harvested and salivary glands were dissected out and washed in HMI 9 media containing 10% fetal bovine serum. Metacyclic cells were collected via centrifugation and maintained in HMI 9 media with 10% fetal bovine serum at 37° C. in 5% CO2 until use. Killing assays were conducted with 1×10^4 cells/ml in HMI 9 media containing 10% fetal bovine serum. Trypanosoma vivax and T. congolense were grown from stabilites in donor ICR mouse (Harlan, United Kingdom). Parasites were harvested from mice by terminal exsanguination and passage of infected blood through a small anion exchange column. Cells were maintained in HMI 9 with 20% goat serum at 37° C. in 5% CO2 until use. Killing assays were performed with 1×10^7 cells/ml in HMI 9 media with either 20% goat serum, in the case of T. vivax and T congolense, and 10% fetal bovine serum, for T. b. brucei. Cells were incubated at 37° C. for 2 hours and dead parasites were scored visually. All were conducted in at least duplicate, and data points are the averages with standard deviations.

[6] = tested on: plasma membrane of live BSF T. b. brucei; assay: Anisotropy assays with DPH and TMA-DPH, Example 4; assay type: cell-based, Trypanosoma brucei brucei; details: 37° C.
Method: Anisotropy Assays. The plasma membrane rigidity of live T. b. brucei was determined by measuring the fluorescence depolarization of diphenyl-1,3,5-hexatriene p-toluenesulfonate (DPH) or 1-(4-trimethylammoniumphenyl)-6-diphenyl-1,3,5-hexatriene p-toluenesulfonate (TMA-DPH; Invitrogen T204). Cells were washed 3 times with and resuspended in PBS at a density of 3×10^6 cells/ml. The anisotropic probes were added to a final concentration of […] and allowed to intercalate into the cell membrane for one hour in the dark. Anisotropic values were acquired via the software function of a PerkinElmer Life Sciences LS55 spectrofluorometer. Samples were excited at 358 nm, and emission was read at 430 nm, both with 10-nm slit widths. Temperature was maintained at 37° C. by means of the PerkinElmer LS55 Biokinetics accessory. Data were corrected for light scattering with an unlabeled sample of cells, and anisotropy was calculated according to the equation r=(IVV−GIVH)/(IVV+2GIVH), where r is the anisotropy value, IVV is the emission intensity acquired with the excitation- and emission-polarizing filters set vertically, G is the instrument correction factor, and IVH is the emission intensity acquired with the excitation-polarizing filter set vertically and the emission-polarizing filter set horizontally. All assays were conducted at 37° C. […]

BSF T. b. brucei [7] = assay: Trypanosome motility by video microscopy, Example 4; assay type: cell-based, Trypanosoma brucei brucei; details: 40 μM peptide, 37° C.
Method: Trypanosome motility. All images and videos were acquired with an Axio Observer Z1 equipped with an AxioCam MRm controlled by AxioVision 4.6 software. Videos were acquired with live cells at a density of 1×10^7 cells/ml in HMI 9 media with 10% fetal bovine serum, incubated with 40 µM SHP-1 at 37° C. Videos were recorded at magnification 63× with 50-ms acquisition times. The motility of BSF trypanosomes was scored visually from video playback of trypanosomes scanned throughout 10 μl aliquots. Data is shown as the average of triplicate trials with standard deviations.

CC[C@H](C)[C@H](NC(=O)[C@@H](NC(=O)[C@H](C)NC(=O)CNC(=O)[C@H](CC(C)C)NC(=O)[C@H](CC(=O)O)NC(=O)[C@H](CO)NC(=O)[C@@H](N)CCSC)C(C)C)C(=O)N[C@@H](CO)C(=O)N[C@@H](CC(C)C)C(=O)N[C@@H](CC(C)C)C(=O)N[C@@H](CC(C)C)C(=O)N[C@@H](Cc1c[nH]c2ccccc12)C(=O)NCC(=O)N[C@@H](CCCNC(=N)N)C(=O)N[C@@H](CCC(N)=O)C(=O)N[C@@H](CC(C)C)C(=O)N[C@@H](Cc1ccccc1)C(=O)N[C@@H](C)C(=O)O [Hpr-SP, MSDLGAVISLLLWGRQLFA] (H-MSDLGAVISLLLWGRQLFA-OH; N-terminus and C-terminus assumed)
permeabilization of DSPC liposomes (calcein leakage) ([1]; neutral or acidic pH): no permeabilizing activity at neutral or acidic pH | permeabilization of egg PC liposomes (calcein leakage) ([1]; robust at pH 6.8): readily permeabilized by nanomolar concentrations | toxicity towards human embryonic kidney cells [2]: No toxicity was observed

AKLIALTLLGMGLALFRNHQS (amino acid sequence of small hydrophobic peptide -2 (SHP-2)) [Signal peptide of human paraoxonase-1 without the N-terminal methionine]
killing of BSF T. b. brucei [3]: equivalent to SHP-1

ERTEESWGRRFWRRGEAC (non-specific, hydrophilic peptide predicted from the N-terminus of the alternatively edited protein-1 from mitochondria of T. b. brucei) [NSP, Non-specific hydrophilic peptide predicted from the N-terminus of alternatively edited protein-1 of T. b. brucei mitochondria, reference compound]
killing of BSF T. b. brucei [3]: exhibited no toxicity | killing (trypanolysis) of bloodstream form trypanosomes [4]: gave no trypanolysis

FHQIWAALLYFYGIIENSIY (derivative of SHP-3 having a leucine to glutamic acid substitution at position -5) [SHP-3ΔE]
killing of BSF T. brucei (trypanocidal activity) (BSF T. b. brucei [5]): does not

FHQIWAALLYFYGIIRNSIY (derivative of SHP-3 having a leucine to arginine substitution at position -5) [SHP-3ΔR]
rigidity of the interfacial region of the plasma membrane (TMA-DPH) [6]: increased the rigidity of the interfacial region of the plasma membrane | killing of BSF T. brucei (trypanocidal activity) (BSF T. b. brucei [5]): confers trypanocidal activity | motility phenotype (hyperactivation, constriction) (BSF T. b. brucei [7]): induce both initial hyperactivation and subsequent constriction

SDLGAVISLLWGRQLFA (derivative of SHP-1 having a single leucine deletion) [SHP-1-ΔL]
decrease in trypanocidal activity relative to SHP-1 [3]: five-fold

SDLGAVISWGRQLFA (derivative of SHP-1 having a deletion of C-terminal leucine in triplicate) [SHP-1-ΔLLL, Derivative of SHP-1 with deletion of C-terminal leucine triplicate]
killing of BSF T. b. brucei [3]: complete lose of trypanosome killing activity

SDVISLLLWGRQLFA (derivative of SHP-1 having a deletion of the N-terminal leucine-glycine-alanine residues) [SHP-1-ΔLGA, Derivative of SHP-1 with a deletion of the N-terminal leucine-glycine-alanine residues]
killing of BSF T. b. brucei [3]: complete lose of trypanosome killing activity

SRLGAVISLLLWGDQLFA (derivative of SHP-1 having an aspartic acid to arginine substitution at position 2 and an arginine to aspartic acid subsitution at position -5) [SHP-1-swap, SHP-1 with aspartic acid at position 2 and arginine at position −5 swapped]
killing of BSF T. brucei (trypanocidal activity) (BSF T. b. brucei [5]): loss of trypanocidal activity
